Entries after “also recorded” stand apart in the source; their conditions may differ.
Experiments:
CXCR3-eGFP = biological target: T1, CXCR3-eGFP (Homo sapiens, UniProt P49682); assay: Receptor internalization imaging (confocal laser scanning microscopy); assay type: cell-based; details: CXCL11 10 nM; FAUC1036 10 µM and 1 µM; one hour; Figure 4A
T1 construct: expressed in transfected cells; host or cells: HEK293T cells, transient
T1 sequence (P49682 1-368): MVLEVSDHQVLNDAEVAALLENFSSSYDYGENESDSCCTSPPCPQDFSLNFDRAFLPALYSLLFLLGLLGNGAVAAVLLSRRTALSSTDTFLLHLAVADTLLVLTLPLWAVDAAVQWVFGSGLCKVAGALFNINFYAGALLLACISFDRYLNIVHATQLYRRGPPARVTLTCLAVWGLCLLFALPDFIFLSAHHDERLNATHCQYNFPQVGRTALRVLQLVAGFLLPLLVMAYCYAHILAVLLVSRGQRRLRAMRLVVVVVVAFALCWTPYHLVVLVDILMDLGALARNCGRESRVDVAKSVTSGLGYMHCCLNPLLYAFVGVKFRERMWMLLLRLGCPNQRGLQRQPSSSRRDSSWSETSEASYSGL
Experimental: Receptor internalization imaging: The day before transfection HEK293T cells were seeded in 6-well plates at a density of 200,000 cells/well. Transient transfection of the C-terminally eGFP-tagged CXCR3 cDNA was performed using TransIT293(MIRUS). Cells were transferred to Poly-L-Lysine coated glass coverslips 24 h after transfection. 2 d after transfection, cells were washed with phosphate buffered saline (PBS) and treated with the endogenous chemokine CXCL11 or compound FAUC1036 at 37°C in 5% CO2 for 60min. Cells were fixed with 4% paraformaldehyde (RotiHistofix, Carl Roth) for 10min. […]
The effect of FAUC1036 on receptor internalization was investigated by scanning laser confocal microscopy and ELISA-based assay. […] The quantification of receptor internalization upon the treatment with the endogenous agonists and with either β-arrestin 2 biased FAUC1036 or G-protein biased FAUC1104 was performed with ELISA based assay. The HEK293T cells transiently expressing FLAG-CXCR3 were stimulated with compounds and chemokines for one hour, washed, fixed and the amount of FLAG-CXCR3 present on the surface was detected by anti-FLAG antibody.

human CXCR3 (isoform 1) = biological target: T2, human CXCR3 (isoform 1) (Homo sapiens, UniProt P49682); assay: [125I]CXCL11 radioligand displacement assay; assay type: binding
T2 construct: expressed in transfected cells; host or cells: COS-7 cells, transient (pcDNA3.1+ vector, calcium phosphate)
T2 sequence (P49682 1-368): T1 sequence (P49682 1-368)
Experimental: [^125I]CXCL11 radioligand displacement assay: Oxidative iodination. The CXCL11 protein (purchased from PeproTech as the mature form of isoform 1) was labeled in-house with the ^125I isotope (purchased from Perkin-Elmer, in 10 µM NaOH, pH 8-11) using the Chloramine-T method^36. CXCL11 was dissolved in 300 mM phosphate buffer, and 0.4 mCi ^125I was added to 0.6 nmol (10 µl) of the protein. 30 µl phosphate buffer supplemented with 30 mgl^-1 Chloramine-T was added slowly over a 5 min period while stirring, and the reaction was quenched by adding 400 µl H2O with 0.1% trifluoroacetic acid (TFA). The product was purified by reverse-phase HPLC, using a C18 column and a gradient from H2O with 0.1% TFA (buffer A) to acetonitrile with 0.1% TFA (buffer B). After allowing the passage of 8 mL flow-through at 20 % buffer B, CXCL11 is eluted by increasing buffer B to 50 % over a flow-volume of 40 mL, after which any possible remains of protein are eluted by further increasing buffer B to 80 % across 10 mL flow-through. The flow-through is collected in 1 mL aliquots, and the radioligand is identified in those aliquots by gamma radiation intensity, and verified with a preliminary competitive binding assay setup.
Cell culture and transfection,. Cos-7 cells expressing human CXCR3 (isoform 1) were used for binding assays. […]

CC(C)(C)OC(=O)N[C@@H](CCCCNC(=O)[C@@H]1Cc2ccccc2CN1C(=O)CCC(=O)c1ccccc1)C(=O)NCC(c1ccccc1)c1ccccc1 [Compound 11, Tert-butyl ((S)-1-((2,2-diphenylethyl)amino)-1-oxo-6-((S)-2-(4-oxo-4-phenylbutanoyl)-1,2,3,4-tertahydroisoquinoline-3-carboxamido)hexan-2-yl)carbamate]
CXCR3 internalization (confocal microscopy) (CXCR3-eGFP): induced the CXCR3 internalization; also recorded: led to the internalization of a significant portion of the receptors | effect on the binding affinity of CXCL11 on CXCR3 (human CXCR3 (isoform 1)): no effect on the binding affinity of CXCL11 on CXCR3

Source: patent publication EP3156398A1, “AGONISTS OF THE CHEMOKINE RECEPTOR CXCR3” (Friedrich-Alexander-Universität Erlangen-Nürnberg, priority 2015, dated 2017)
